Experimental data published in US11471502B2, “Neuroprotective peptide” (UNIVERSITY COLLEGE CARDIFF C[…], priority 2017, dated 2022).
“Also recorded” adds a separate entry of the source.

Legend:
[1] = tested on: MPTP treated mice; test: Subacute MPTP mouse model of Parkinson's Disease; assay type: in vivo; conditions: 4 days
Experimental: Adult mice were treated with MPTP or vehicle (20 mg/kg i.p.) for 4 days. […] Two-way ANOVA Bonferroni post-hoc comparison *p<0.05**p<0.01.
Two-way ANOVA Bonferroni post-hoc comparison *p<0.05**p<0.01
We have assessed the neuroprotective effect of RB5 in the MPTP (1-methyl-4-phenyl-1,2,3,6-tetrahydropyridine) neurotoxin model of Parkinson's Disease (FIG. 6). Mice have been treated with MPTP or vehicle (20 mg/kg, i.p) for 4 days. RB5 or scramble peptide (20 mg/kg, i.p) was injected 1 h before MPTP/vehicle.

[2] = tested on: zQ175 mice; test: Nose poke training (FR1) in 9-hole operant boxes, zQ175 model of Huntington's Disease; assay type: in vivo, mouse
Experimental: WT and zQ175 mice underwent daily 20 minutes nose poke training for 10 consecutive days (days 1-10) on a simple fixed ratio (FR1) schedule of reinforcement. Starting from day 11 mice received one administration of RB5 (20 mg/kg. i.p.) 1 h before the nose poke training. […] White star P<0.0001.
Operant testing was conducted in 16 9-hole operant boxes. Each operant box contains a horizontal array of nine holes with infrared beams localised to the front of each hole to detect nose pokes. A peristaltic pump delivers liquid reinforcement (strawberry milk) into a magazine at the front of the box.
A week before starting the training, mice undergo water restriction for 18 hours/day and are kept under this regimen throughout the experimental procedures. Mice are taught to nose poke on a simple fixed ratio (FR1) schedule of reinforcement: to obtain reward, mice are required to respond to a stimulus light in the central hole via a single nose poke. Mice are trained daily on this program during 20 minutes sessions for 10 days (training phase). Once trained, animals were subdivided in 4 groups and injected with RB5 or scramble (10 mg/kg, i.p.) peptides 1 hour before being tested on FR1 schedule for other 9 days.

[3] = tested on: phospho-p44/p42 MAP kinase (Thr202/Tyr204); test: In vivo time course and dose response of ERK activation in dorsal striatum; parameters: species or system mouse; conditions: dorsal striatum
Experimental: (§1) Mice injected with RB5 were perfused at different time points, whereas scramble-injected mice were perfused after 1 hour. Immunohistochemical analysis was carried out against phospho-p44/p42 MAP kinase (Thr202/Tyr204). […] One-way ANOVA F5,29=9.137, p<0.0001. Bonferroni's post-hoc test, SCR vs RB5 1 h: p<0.001, SCR vs RB5 6 h: p<0.001. […] Immunohistochemical analysis was carried out against phospho-p44/p42 MAP kinase (Thr202/Tyr204). […] One-way ANOVA: F5,29=7.097, p<0.001. Bonferroni's post-hoc test, SCR vs RB5 20 mg/kg: p<0.05, SCR vs RB5 10 mg/kg: p<0.01. Data are expressed as Mean±SEM. c) RB5 brain levels measured with mass spectrometry at different hours after a single i.p. administration of 20 mg/kg. High levels of RB5 were detected up to 6 hrs (one-way ANOVA, F4,18=17.469, P<0.0001, Bonferroni's post-hoc, SCR vs RB5 1 h P<0.01, SCR vs RB5 3 h P<0.0001, SCR vs RB5 6 h P<0.05). […] White star P<0.0001, P<0.001, P<0.01, P<0.05.
(§2) 1 h after CPP-RB5/CPP-SCR (20 mg/kg, i.p.) mice were anaesthetized and perfused via intracardiac infusion of ice-cold 4% PFA. Brains were rapidly extracted, post-fixed overnight and transferred to 25% buffered sucrose for 24 h. Coronal sections were cut at 30 μm thickness on a freezing microtome and stored in a cryoprotective solution at −20° C. until they were processed for immunohistochemistry. Free-floating sections were incubated with primary antibodies against anti-phospho-p44/42 MAP kinase (Thr202/Tyr204), anti-phospho-Elk-1 (Ser383), anti-phospho-Kv4.2 (Thr607)-R, anti-phospho-MSK-1, anti-phospho-MEK-1, c-Fos and Tyrosine Hydroxylase overnight at 4° C. Sections were then incubated with biotinylated goat anti-rabbit IgG (1:200, Vector Labs) for 2 h. Detection of the bound antibodies was carried out using a standard peroxidase-based method (ABC-kit, Vectastain, Vector Labs), followed by a DAB and H2O2 solution. Quantification of positive neurons were counted from striatum in 2-3 sections per mouse, bilaterally. Sample areas were visualized under a 20× objective in a Leica DM IRB microscope by a blind investigator to condition and counts per region were averaged across the sections using the ImageJ software.

[4] = as above; parameters: species or system mouse; conditions: mouse, in vivo, ip; 20 mg/kg i.p.; read-out: estimated half-life (of RB5 activity on pERK in brain) (converted)
Experimental: as §1, §2

Question: Which “TH loss in Substantia Nigra” value ([1]; 20 mg/kg i.p. 1 h before MPTP 20 mg/kg) does the source give for `CSCC[C@H](NC(=O)[C@H](CCC(=O)O)NC(=O)[C@@H](NC(=O)[C@H](CCC(=O)O)NC(=O)CNC(=O)[C@@H]1CCCN1C(=O)[C@@H](NC(=O)CNC(=O)[C@@H]1CCCN1C(=O)CNC(=O)[C@@H](NC(=O)CNC(=O)[C@H](CCC(=O)O)NC(=O)[C@@H](NC(=O)[C@H](CCCNC(=N)N)NC(=O)[C@H](CCCNC(=N)N)NC(=O)[C@@H]1CCCN1C(=O)[C@H](CCC(=O)O)NC(=O)CNC(=O)CNC(=O)CNC(=O)CNC(=O)CNC(=O)[C@H](CCC(N)=O)NC(=O)[C@@H]1CCCN1C(=O)[C@@H]1CCCN1C(=O)[C@H](CCCNC(=N)N)NC(=O)[C@H](CCCNC(=N)N)NC(=O)[C@H](CCCNC(=N)N)NC(=O)[C@H](CCC(N)=O)NC(=O)[C@H](CCCNC(=N)N)NC(=O)[C@H](CCCNC(=N)N)NC(=O)[C@H](CCCCN)NC(=O)[C@H](CCCCN)NC(=O)[C@H](CCCNC(=N)N)NC(=O)CNC(C)=O)[C@@H](C)O)C(C)C)C(C)C)C(C)C)C(=O)N[C@H](C(=O)N[C@@H](CCCCN)C(=O)NCC(=O)N[C@@H](CCC(N)=O)C(=O)N1CCC[C@H]1C(=O)N[C@@H](Cc1ccccc1)C(=O)N[C@@H](CC(=O)O)C(=O)N[C@@H](C(=O)O)C(C)C)C(C)C` [RB5] here?
Answer: significant reduction of TH loss

Question: What about the “apoptotic cells (TUNEL, nigral neurones)” value ([1]; 20 mg/kg i.p. 1 h before MPTP) of the same compound?
Answer: significant reduction of apoptotic cells

Question: And the “neurodegeneration (TH, TUNEL, cleaved caspase 3)” value ([1]; 20 mg/kg i.p. 1 h before MPTP)?
Answer: Neurodegeneration was prevented

Question: What about the “pre-apoptotic state (Cleaved Caspase-3)” value ([1]; 20 mg/kg i.p. 1 h before MPTP) of the same compound?
Answer: significant reduction of the pre-apoptotic state

Question: What about the “nose poke performances / responses” value ([2]; WT and zQ175 female mice, 9 days of RB5 treatment) of the same compound?
Answer: significant enhancement of the responses; also recorded: improved performances

Question: And the nose poke responding ([2]; zQ175 female mice, 20 mg/kg i.p. 1 h before training from day 11)?
Answer: significantly improved

Question: And the “time after injection at which phospho-ERK returned to basal levels” value ([3]; 20 mg/kg i.p.)?
Answer: 12 h

Question: And the “time after injection up to which phospho-ERK levels / RB5 activity remained increased” value ([3]; 20 mg/kg i.p.)?
Answer: up to 6 h

Question: And the pERK dose response ([3]; different doses i.p., 1 hour after injection)?
Answer: both 20 and 10 mg/kg (i.p.) doses are able to elevate pERK; also recorded: dose-dependent manner

Question: What about the half-life [4] of the same compound?
Answer: 9 h
